Data set [1] in a line: Stability testing of reduced coenzyme Q10 against autooxidation on storage in air, protected against light. The following applies: in the presence of air, at 4 weeks after starting storage, HPLC. The data set is classed as physicochemical. As to the method: In the examples, a reduced coenzyme Q concentration and an oxidized coenzyme Q concentration were determined by the following HPLC analysis. Column; SYMMETRY C18 (product of Waters Corporation), 250 mm (length), 4.6 mm (inside diameter), mobile phase; C2H5OH:CH3OH=4:3 (v:v), detection wavelength; 210 nm, flow rate; 1 ml/min, retention time for a reduced coenzyme Q10; 9.1 min, retention time for an oxidized coenzyme Q10; 13.3 min. Reduced coenzyme Q10 bulk powder (Q-OH bulk powder) containing 2% of oxidized coenzyme Q10 and the powdery compositions I to IV respectively obtained in Examples 1 to 4 were subjected to stability testing in the following manner. Thus, each composition (test sample) was placed in a microtube and stored, in a state protected against light, at 23° C. or 40° C. in the presence of air. After 1, 2 or 4 weeks of storage, 25 mg of each sample was sampled and dissolved in ethanol, the concentrations of oxidized coenzyme Q10 and reduced coenzyme Q10 were measured by HPLC and the percentage of reduced coenzyme Q10 in total coenzyme Q10 as contained in the composition (test sample) was determined.

A short description of data set [2]: Solubility testing in water. Particulars: 1 g in 100 ml of water, stirred at 5,000 rpm for 30 seconds, observed after 1 hour of standing. The data set is classed as physicochemical. As to the method:
Coenzyme Q10 bulk powder (Q-OH bulk powder) containing 98% of reduced coenzyme Q10 and the powdery compositions obtained in Examples 1 to 4 were subjected to solubility testing in the following manner. Thus, 1 g of each composition (test sample) was added to 100 ml of water, and the mixture was stirred at 5,000 rpm for 30 seconds using a mixer and then allowed to stand.

The source of these data is patent publication US20070243180A1, “Composition Containing Reduced Coenzyme Q” (priority 2003, published 2007).

Each structure is given as a SMILES string.

Regarding `COc1c(O)c(C)c(C/C=C(\C)CC/C=C(\C)CC/C=C(\C)CC/C=C(\C)CC/C=C(\C)CC/C=C(\C)CC/C=C(\C)CC/C=C(\C)CC/C=C(\C)CCC=C(C)C)c(O)c1OC` [reduced coenzyme Q10], the figures for the “residual reduced coenzyme Q10 percentage relative to total coenzyme Q10 contained in the composition” value in data set [1] (stored at 23° C.) and in data set [1] (stored at 40° C.) were 41% and 11%, respectively. In addition, the Solubility in water result in data set [2] is given as “Insoluble”; in data set [2] (listed as Coenzyme Q10 bulk powder (Q-OH bulk powder)), “insoluble, forming orange-colored oil drops floating on the water”.
